Measured values as given in ChEMBL document CHEMBL4118267, “Access to new highly potent antileukemia, antiviral and antimalarial agents via hybridization of natural products (homo)egonol, thymoquinone and artemisinin” (Bioorg Med Chem, 2018).

Assays:
CCRF-CEM = experiment: Cytotoxicity against human CCRF-CEM cells assessed as reduction in cell viability after 72 hrs by resazurin dye based assay; assay type: functional
ADR5000 cell line [1] = experiment: Potency index, ratio of doxorubicin EC50 to compound EC50 for human CEM/ADR5000 cells over-expressing P-gp; assay type: functional
ADR5000 cell line [2] = experiment: Cytotoxicity against human CEM/ADR5000 cells over-expressing P-gp assessed as reduction in cell viability after 72 hrs by resazurin dye based assay; assay type: functional
Human betaherpesvirus 5 [3] = experiment: Antiviral activity against GFP-fused Human cytomegalovirus AD169 infected in primary HFF; assay type: functional, organism-based; details: Human betaherpesvirus 5, AD169, HFF
Plasmodium falciparum [4] = experiment: Antimalarial activity against Plasmodium falciparum 3D7 infected in human erythrocytes after 72 hrs by SYBR green dye fluorescence assay; assay type: functional, organism-based; details: 3D7, 72 h
Human betaherpesvirus 5 [5] = experiment: Potency index, ratio of gancyclovir EC50 to compound EC50 for GFP-fused Human cytomegalovirus AD169 infected in primary HFF; assay type: functional
Plasmodium falciparum [6] = experiment: Potency index, ratio of artesunic acid EC50 to compound EC50 for Plasmodium falciparum 3D7 infected in human erythrocytes; assay type: functional
[7] = Homo sapiens, CCRF-CEM, 72 h, read-out: EC50
[8] = Homo sapiens, ADR5000, 72 h, read-out: EC50

Row | Structure (SMILES) | EC50 (CCRF-CEM; [7]) | Ratio EC50 (ADR5000 cell line [1]) | EC50 (ADR5000 cell line [2]; [8]) | EC50 (Human betaherpesvirus 5 [3]) | EC50 (Plasmodium falciparum [4]) | EC50 (CCRF-CEM; ccrf-cem) | EC50 (ADR5000 cell line [2]; adr5000) | Ratio EC50 (Human betaherpesvirus 5 [5]) | Ratio EC50 (Plasmodium falciparum [6])
1 | COc1cc(CCCOC(=O)CCC(=O)O[C@@H]2O[C@@H]3O[C@@]4(C)CC[C@H]5[C@H](C)CC[C@@H]([C@H]2C)[C@@]35OO4)cc2cc(-c3ccc4c(c3)OCO4)oc12 | 180 nM | <=104 | 1120 nM | 870 nM |  |  |  |  | 
2 | COc1ccc(-c2cc3cc(CCCO)cc(OC)c3o2)cc1OC |  |  |  | 1280 nM | 26500 nM | Not Active | Not Active |  | 
3 | COc1ccc(-c2cc3cc(CCCO[C@H]4O[C@@H]5O[C@@]6(C)CC[C@H]7[C@H](C)CC[C@@H]([C@H]4C)[C@@]57OO6)cc(OC)c3o2)cc1OC | 72 nM | <=104 | 630 nM | 130 nM | 6.5 nM |  |  | 20 | 
4 | COc1cc(CCCO[C@H]2O[C@@H]3O[C@@]4(C)CC[C@H]5[C@H](C)CC[C@@H]([C@H]2C)[C@@]35OO4)cc2cc(-c3ccc4c(c3)OCO4)oc12 | 99 nM | <=104 | 400 nM | 170 nM | 28.3 nM |  |  |  | 
5 | COc1cc(CCCOC(=O)C[C@H]2O[C@@H]3O[C@@]4(C)CC[C@H]5[C@H](C)CC[C@@H]([C@H]2C)[C@@]35OO4)cc2cc(-c3ccc4c(c3)OCO4)oc12 | 568 nM | <=104 | 582 nM | 240 nM | 13.3 nM |  |  |  | 
6 | C[C@H]1[C@H](OC(=O)CCC(=O)OCC#CCOC(=O)CCC(=O)O[C@@H]2O[C@@H]3O[C@@]4(C)CC[C@H]5[C@H](C)CC[C@@H]([C@H]2C)[C@@]35OO4)O[C@@H]2O[C@@]3(C)CC[C@H]4[C@H](C)CC[C@@H]1[C@@]24OO3 |  |  |  | 940 nM | 3.8 nM |  |  | 6 | 2
7 | COc1cc(CC/C=N/C2=C(C)C(=O)C=C(C(C)C)C2=O)cc2cc(-c3ccc4c(c3)OCO4)oc12 | 43700 nM | <=104 | 17400 nM |  | 1190 nM |  |  |  | 
8 | COc1cc(CCCOC(=O)CCCc2ccc(N(CCCl)CCCl)cc2)cc2cc(-c3ccc4c(c3)OCO4)oc12 |  |  |  | 2900 nM | 23200 nM |  |  |  | 
9 | C[C@@H]1CC[C@H]2[C@@H](C)C(=O)O[C@@H]3O[C@@]4(C)CC[C@@H]1[C@]32OO4 [ARTEMISININ] | 36900 nM |  | 26900 nM |  |  |  |  |  | 
10 | C[C@H]1[C@@H](O)O[C@@H]2O[C@@]3(C)CC[C@H]4[C@H](C)CC[C@@H]1[C@@]24OO3 [ARTENIMOL] | 85 nM |  | 265 nM | > 10000 nM | 2.4 nM |  |  |  | 
11 | C[C@H]1[C@H](OC(=O)CCC(=O)O)O[C@@H]2O[C@@]3(C)CC[C@H]4[C@H](C)CC[C@@H]1[C@@]24OO3 [ARTESUNATE] | 69 nM |  | 189 nM | 5410 nM | 9.7 nM |  |  |  | 
12 | CCN(CC)CCCC(C)Nc1ccnc2cc(Cl)ccc12 (stereo unspecified) [CHLOROQUINE] |  |  |  |  | 9.8 nM |  |  |  | 
13 | COc1cccc2c1C(=O)c1c(O)c3c(c(O)c1C2=O)C[C@@](O)(C(=O)CO)C[C@@H]3O[C@H]1C[C@H](N)[C@H](O)[C@H](C)O1 [DOXORUBICIN] | 15 nM |  | 41500 nM |  |  |  |  |  | 
14 | COc1cc(CCCO)cc2cc(-c3ccc4c(c3)OCO4)oc12 [EGONOL] | 24700 nM |  | 26800 nM | 2380 nM | 7500 nM |  |  |  | 
15 | Nc1nc2c(ncn2COC(CO)CO)c(=O)[nH]1 [GANCICLOVIR] |  |  |  | 2600 nM |  |  |  |  | 
16 | CC1=CC(=O)C(C(C)C)=CC1=O [THYMOQUINONE] | 300 nM |  | 300 nM | > 10000 nM | > 80000 nM |  |  |  | 
